Columns and labels:
[1] = test system: cancer cell lines (HepG2, Hep3B, HeLa, HK1, C666-1); test: cells; format: cell-based, human; settings: for IC50: Homo sapiens, 48 hrs treatment, WST-1, average over cancer cell lines
Protocol: For testing the anti-proliferation activity of the compounds in human cell lines and calculation of IC50, cancer cells including HepG2, HeLa and Hep3B (4×10^5 cells/well) and normal L-02 cells (5×10^5 cells/well) were respectively seeded in 96-well plates in 100 μl of culture medium and incubated for about 12 hrs at 37° C. The cells were treated with two-fold serial dilutions of the drugs for 48 hrs. Medium was removed and 100 μl of culture medium containing 1 μM WST-1 (water soluble tetrazolium-1) were added to each well. The cells were incubated for 2 hrs, and absorbance at 405 nm (reference at 630 nm) was then measured. To construct the standard curve of the relationship between cell number and absorbance at OD405, serial dilutions of cells with known cell numbers were seeded and incubated for six hrs before being measured by the WST-1 assay. The cell viability was expressed as the ratio of the number of live cells treated with a candidate compound versus that of the DMSO-treated cells.
To further test 17beta-Deacetyltanghinin and to determine the IC50 values, besides L-02 and HepG2, Hep3B (another liver cancer cell line which is p53-negative), HeLa (cervical cancer cell line), HK1 and C666-1 (nasopharyngeal carcinoma) cells and a hTert-immortalized normal nasopharyngeal cell line (NP460) were treated by 17beta-Deacetyltanghinin for 48 hrs, and the relative cell vabilities were determined by WST-1 assay (FIG. 2B, C).

hMcm2 and hMcm6 [2] = molecular target: T1, hMcm2 and hMcm6 (Homo sapiens, UniProt P49736+Q14566); test: Immunostaining / GFP fluorescence microscopy of MCM nuclear localization in HeLa cells; format: cell-based; settings: 24 hrs
T1 construct: the endogenous hMcm2 and hMcm6 were detected by specific antibodies against these proteins; endogenous in cells; host or cells: HeLa
T1 sequence (P49736 2-904): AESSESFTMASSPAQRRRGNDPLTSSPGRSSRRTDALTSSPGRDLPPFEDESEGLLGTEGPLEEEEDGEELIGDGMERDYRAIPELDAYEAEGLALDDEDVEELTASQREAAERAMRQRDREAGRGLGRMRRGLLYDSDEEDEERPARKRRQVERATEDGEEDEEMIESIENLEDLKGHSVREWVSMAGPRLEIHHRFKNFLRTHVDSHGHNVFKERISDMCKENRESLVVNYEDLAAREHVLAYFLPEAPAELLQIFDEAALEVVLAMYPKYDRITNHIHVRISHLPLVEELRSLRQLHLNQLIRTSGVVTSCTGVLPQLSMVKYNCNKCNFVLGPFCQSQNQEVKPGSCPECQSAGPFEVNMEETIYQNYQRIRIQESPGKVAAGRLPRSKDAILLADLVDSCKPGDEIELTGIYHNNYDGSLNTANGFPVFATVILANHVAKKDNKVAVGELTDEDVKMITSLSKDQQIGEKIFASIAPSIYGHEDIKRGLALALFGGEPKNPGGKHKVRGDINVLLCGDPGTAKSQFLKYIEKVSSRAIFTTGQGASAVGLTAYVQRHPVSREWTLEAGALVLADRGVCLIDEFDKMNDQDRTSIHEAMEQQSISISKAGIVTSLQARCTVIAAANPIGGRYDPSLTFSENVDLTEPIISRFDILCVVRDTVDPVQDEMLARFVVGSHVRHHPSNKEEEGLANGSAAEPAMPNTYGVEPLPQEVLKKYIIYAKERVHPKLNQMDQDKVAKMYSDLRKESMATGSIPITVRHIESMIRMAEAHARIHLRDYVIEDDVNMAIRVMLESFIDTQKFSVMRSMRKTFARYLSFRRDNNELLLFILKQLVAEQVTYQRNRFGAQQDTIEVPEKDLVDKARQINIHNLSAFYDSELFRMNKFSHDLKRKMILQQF
T1 sequence (Q14566 whole entry): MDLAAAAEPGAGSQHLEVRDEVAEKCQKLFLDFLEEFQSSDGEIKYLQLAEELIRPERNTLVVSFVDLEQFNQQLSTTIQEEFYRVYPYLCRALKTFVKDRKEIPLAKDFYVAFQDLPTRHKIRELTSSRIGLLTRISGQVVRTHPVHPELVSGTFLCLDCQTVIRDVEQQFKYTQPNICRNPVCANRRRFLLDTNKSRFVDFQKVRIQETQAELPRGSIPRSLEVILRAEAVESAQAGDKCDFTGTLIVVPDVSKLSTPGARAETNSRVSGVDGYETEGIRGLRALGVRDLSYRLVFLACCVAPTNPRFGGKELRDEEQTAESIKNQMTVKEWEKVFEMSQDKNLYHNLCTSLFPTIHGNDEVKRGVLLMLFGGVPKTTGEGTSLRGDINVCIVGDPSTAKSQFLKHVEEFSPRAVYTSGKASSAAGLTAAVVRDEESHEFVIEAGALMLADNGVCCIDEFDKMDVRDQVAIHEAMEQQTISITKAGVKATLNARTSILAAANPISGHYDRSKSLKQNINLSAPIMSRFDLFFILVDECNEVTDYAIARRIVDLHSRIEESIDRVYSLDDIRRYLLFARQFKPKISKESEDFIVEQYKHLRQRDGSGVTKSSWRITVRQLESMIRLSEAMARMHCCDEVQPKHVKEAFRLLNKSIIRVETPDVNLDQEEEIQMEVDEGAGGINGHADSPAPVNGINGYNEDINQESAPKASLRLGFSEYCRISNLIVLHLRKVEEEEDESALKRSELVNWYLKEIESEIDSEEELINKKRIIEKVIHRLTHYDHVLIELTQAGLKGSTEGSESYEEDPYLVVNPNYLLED
Protocol: (§1) To study the effect of the anticancer compounds on the interaction between hMcm2 and hMcm6 in the cells, immunostaining was performed to detect the sub-cellular localization of the proteins. HeLa cells grown on cover slips (coated with poly-D-lysine) with or without drug treatment were fixed with 4% PFA in PBS at room temperature for 20 min. After permeabilization with 0.1% Triton X-100 and 1% BSA in PBS for 20 min, cells were blocked with 1% BSA and then incubated with rabbit anti-hMcm6 (Santa Cruz; 1:500) and mouse anti-hMcm2 (Becton Dickinson; 1:500) primary antibodies at room temperature for 1 hr. Cells were then incubated with Alexa Fluor 488-conjugated donkey […] antibody and Alexa Fluor 594-conjugated donkey anti-mouse antibody (Invitrogen; 1:500) at room temperature for 1 hr. Three washes with PBS were performed after each round of antibody incubation. Cells were then incubated with Hochest 33852 (Sigma Chemical Company; 1 μg/ml) at room temperature for 15 min for nuclear staining and washed with PBS three times again. At last, cells were mounted and observed under the fluorescence microscope (Nikon TE2000E).
(§2) Because pair-wise interactions among the MCM subunits are required for the MCM heterohexameric ring structure, which is essential for their import into the nucleus, disruption of the interaction between hMcm2 and hMcm6 should destroy the hexamer and result in failure of nuclear localization of MCM proteins. To test this, we employed both indirect fluorescence microscopy (immunostaining) using antibodies against the endogenous MCM proteins and direct fluorescence microscopy after transfection with plasmids to express hMcm2-GFP and hMcm6-GFP in the cells.
(§3) In immunostaining, HeLa cells were treated by 17beta-Deacetyltanghinin for 24 hrs, and the endogenous hMcm2 and hMcm6 were detected by specific antibodies against these proteins. […] In direct fluorescence microscopy, HeLa cells expressing hMcm2-GFP and hMcm6-GFP were treated with 17beta-Deacetyltanghinin for 36 hrs starting at 4 hrs post-transfection with the plasmids expressing hMcm2-GFP and hMcm6-GFP.

hMcm2 and hMcm6 [3] = test: as above; format: cell-based, human; settings: 36 hrs treatment starting 4 hrs post-transfection
Protocol: as §1, §2, §3

HeLa cells = test: BrdU incorporation assay (DNA replication) in HeLa cells; format: cell-based, human
Protocol: Hela cells grown on cover slips coated with poly-D-lysine were incubated with 50 μM BrdU (Sigma) for 1 hr at 37° C. after 24 hrs of 17beta-Deacetyltanghinin treatment. Cells were then fixed in with 4% of PFA in PBS at room temperature for 20 min, permeabilized with 0.1% Triton X-100 and 1% BSA in PBS for 20 min, and then incubated sequentially with anti-BrdU (Sigma Chemical Company; 1:500) and anti-mouse IgG-FITC conjugates (Sigma Chemical Company; 1:500), each for 1 hr at 37° C., with three washes in PBS after each antibody incubation. BrdU signal was observed under the fluorescence microscope (Nikon TE2000E).
As 17beta-Deacetyltanghinin disrupts the interactions between hMcm2 and hMcm6 and inhibits the association of MCM proteins with chromatin, 17beta-Deacetyltanghinin should block DNA replication. To confirm this, we treated HeLa cells with 17beta-Deacetyltanghinin for 24 hrs and then labeled them with BrdU for 1 hr. Incorporated BrdU in the cellular DNA was detected by an anti-BrdU antibody followed by FITC-anti-mouse secondary antibodies which was visualized under the fluorescence microscope (FIG. 6A). DAPI was used to stain the nuclei (FIG. 6A), and the percentage of BrdU positive cells was quantified (FIG. 6B). […]

[4] = test system: L-02 (normal liver) cells and HepG2 (liver cancer) cells; test: Growth resumption after drug removal, WST-1 assay; format: cell-based, human; settings: one day treatment, then three days in fresh medium
Protocol: Data in FIGS. 2 and 8A indicate that the anti-proliferation compounds of this invention can specifically kill cancer cells with little cytotoxicity towards normal cells. To test if normal and/or cancer cells could resume cell growth after removal of 17beta-Deacetyltanghinin, L-02 (normal liver) cells and HepG2 (liver cancer) cells were incubated with 17beta-Deacetyltanghinin or DMSO for one day, 17beta-Deacetyltanghinin or DMSO was then removed, and the cells were further incubated with fresh growth medium for three days. Viable cell numbers were monitored daily by WST-1 assay. In FIG. 9, L+DAT refers to L-02 cells treated with 17beta-Deacetyltanghinin; L+D represents L-02 cells treated with DMSO; H+DAT refers to HepG2 cells treated with 17beta-Deacetyltanghinin; and H+D represents HepG2 cells treated with DMSO before being released into fresh medium.

With `COC1C(O)[C@H](O[C@H]2CC[C@]3(C)C4CC[C@]5(C)[C@@H](C6=CC(=O)OC6)CC[C@]5(O)[C@@]45O[C@H]5C[C@@H]3C2)OC(C)[C@@H]1O` (stereo partly drawn) [17beta-Deacetyltanghinin, 3β-O-(3-O-methyl-6-deoxy-α-L-glucopyranosyl)-7β,8β-epoxy-14β-hydroxy-card-20(22)-enolide] the IC50 [1] was roughly 0.1 µg/mL, the IC50 ([1]; printed in brackets) was roughly 200 nM and the “anti-proliferative (anticancer) activity, in words” value ([1]; WST-1 assay, 48 hrs) was “significantly inhibited”. For the same molecule, the “nuclear localization of endogenous hMcm2 and hMcm6 (immunostaining)” value (hMcm2 and hMcm6 [2]) was “impaired”, the “localization of expressed hMcm2-GFP and hMcm6-GFP (direct fluorescence)” value (hMcm2 and hMcm6 [3]) was “some of the expressed hMcm2-GFP and hMcm6-GFP located in the cytoplasm” and the BrdU positive cells (HeLa cells; HeLa cells arrested with Mimosine, 12 hrs pre-treatment, released in presence of compound, controls ~100%) was roughly 40%. The “BrdU signal (DNA replication)” value (HeLa cells; asynchronous HeLa cells, 24 hrs, above 0.2 ∝g/ml) was “almost no BrdU signal” and the “growth resumption after removal of compound” value [4] was “normal cells, but not cancer cells, resumed growth”.
